Results taken from patent publication US20050222402A1, “Dna encoding rat bombesin receptor subtype-3 (brs-3) and uses thereof” (priority 2001, published 2005).
Residue numbers refer to the chain shown, from its start. Non-standard residues stand in square brackets, D forms with d. Residues, ends and D or L forms follow the SMILES beside them. Nle = CCCC[C@H](N)C(=O)O; βAla = NCCC(=O)O

Key:
RBB3-E3 = target: T1, RBB3-E3 (Rattus norvegicus, UniProt Q8K418, A302V/D306A/E299Q/E303D/P308H/S300T/V307M/V310I/V311F/Y298S); assay: Radioligand binding assay with 125I-dYB; set-up: species or system rat/human; details: displacement of [125I]dYB by unlabeled dYB
T1 construct: expressed in transfected cells; host or cells: 293EBNA cells, pE3 expression vector
T1 sequence (Q8K418 1-399 Y298S/E299Q/S300T/A302V/E303D/D306A/V307M/P308H/V310I/V311F): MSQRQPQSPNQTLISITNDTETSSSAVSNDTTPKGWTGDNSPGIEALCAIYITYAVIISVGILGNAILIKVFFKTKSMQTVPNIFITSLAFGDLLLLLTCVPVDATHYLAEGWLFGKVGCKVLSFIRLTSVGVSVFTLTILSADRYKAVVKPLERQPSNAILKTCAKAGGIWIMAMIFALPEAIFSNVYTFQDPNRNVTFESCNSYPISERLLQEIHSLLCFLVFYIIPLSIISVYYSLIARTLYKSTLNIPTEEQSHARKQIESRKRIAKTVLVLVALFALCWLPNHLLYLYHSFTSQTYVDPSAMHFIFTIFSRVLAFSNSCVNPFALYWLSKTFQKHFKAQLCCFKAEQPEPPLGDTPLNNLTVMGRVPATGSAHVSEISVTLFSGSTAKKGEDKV
Method: After removal of cell nuclei by a low speed centrifugation (1000×g) step, the cell membrane proteins were collected by centrifugation at 35,000×g for 20 minutes. The membrane protein concentration was determined by the Bradford method using BSA as standard.
After a 2 hr incubation at room temperature, the binding reaction was terminated by filtering through a GF/c filter-mate and washing the filter with binding buffer using Packard 96-well Topcount Harvester. The amount of radioligand bound to the receptor was determined by measurement of the radioactivity on the filter through liquid scintillation counting. The non-specific binding was defined as the binding in the presence of 1 uM unlabeled dYB.

rat BRS-3 = target: T2, rat BRS-3 (Rattus norvegicus, UniProt Q8K418); assay: Calcium mobilization assay (FLIPR), transfected 293EBNA cells; format: cell-based
T2 construct: utilized to PCR amplify full-length rat BRS-3 cDNA; expressed in transfected cells; host or cells: 293EBNA cells, pE3 expression vector
T2 sequence (Q8K418 1-399): T1 sequence (Q8K418 1-399 Y298S/E299Q/S300T/A302V/E303D/D306A/V307M/P308H/V310I/V311F) with S298Y, Q299E, T300S, V302A, D303E, A306D, M307V, H308P, I310V, F311V
Method: Wild type and mutant BRS-3 constructs were transfected by using lipofectamine reagents (Life Technologies, Rockville, Md.) into 293EBNA cells (Invitrogen, Carlsbad, Calif.) which support episomal replication of plasmid containing Epstein Bar virus OriP segment. Stable cell lines were obtained by selection with 250 ug/ml hygromycin. The cells were maintained as monolayers in Dulbecco's modified Eagle's medium (Life Technologies, Rockville, Md.) supplemented with 10% fetal bovine serum and incubated at 37° C. in a humidified 5% CO2 incubator.
(§1) The functional activity of rat BRS-3 was also studied by measuring the agonist-induced calcium mobilization response using a Fluorescence Imaging Plate Reader (Molecular Devices, Sunnyvale, Calif.). Transfected 293EBNA cells were plated onto poly-D-lysine coated 96-well plates with black wall and clear bottom (Becton Dickinson, Franklin Lakes, N.J.). After 16-48 hr culture, the cells were loaded with 4 uM Fluo-3-AM fluorescent calcium-indicator dye (Molecular Probes, Eugene, OR) in assay buffer (Hank's balanced salts solution, 10 mM HEPES, pH7.4, 0.1% bovine serum albumin, 2.5 mM probenecid).
(§2) The changes in intracellular calcium concentration, as indicated by Fluo-3 fluorescence, were immediately measured by FLIPR. Maximal changes in fluorescence over base line were used to determine agonist response.
(§3) The EC50 values were mean±S.E. calculated from dose-response curves of 3-5 repeated experiments using FLIPR assays.

human BRS-3 = target: T3, human BRS-3 (Homo sapiens, UniProt P32247); assay: as above; format: cell-based
T3 construct: expressed in transfected cells; host or cells: 293EBNA cells, pE3 expression vector
T3 sequence (P32247 1-399): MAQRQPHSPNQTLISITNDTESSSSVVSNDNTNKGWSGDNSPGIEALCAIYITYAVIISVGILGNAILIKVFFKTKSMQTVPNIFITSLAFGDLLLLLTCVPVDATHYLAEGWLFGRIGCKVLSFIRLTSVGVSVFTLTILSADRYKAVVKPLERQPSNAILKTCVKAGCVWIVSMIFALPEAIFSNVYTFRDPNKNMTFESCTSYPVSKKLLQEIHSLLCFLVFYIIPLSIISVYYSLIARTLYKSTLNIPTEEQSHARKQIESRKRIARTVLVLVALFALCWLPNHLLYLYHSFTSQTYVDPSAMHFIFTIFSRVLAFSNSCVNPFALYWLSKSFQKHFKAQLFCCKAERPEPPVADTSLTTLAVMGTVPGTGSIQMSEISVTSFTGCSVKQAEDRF
Method: as §1, §2, §3

[1] = system: human bombesin receptor subtypes, including human BRS-3; details: Pradhan et al. 1998; Ryan et al. 1998; cited from earlier work

SMILES	Ki (RBB3-E3) [nM]	EC50 (rat BRS-3) [nM]	EC50 (human BRS-3) [nM]	affinity and potency reported [1]	difference in dYB potency between human and rodent BRS-3 (rat BRS-3)	lower affinity of rat BRS-3 to dYB than human BRS-3 (rat BRS-3)
CCCC[C@H](NC(=O)[C@H](Cc1ccccc1)NC(=O)[C@H](Cc1cnc[nH]1)NC(=O)CCNC(=O)[C@@H](NC(=O)[C@H](C)NC(=O)[C@H](Cc1c[nH]c2ccccc12)NC(=O)[C@H](CCC(N)=O)NC(=O)[C@H](N)Cc1ccc(O)cc1)C(C)C)C(N)=O [dYB, [D-Tyr6-betaAla11-Phe13-Nle14] bombesin (6-14)] (H-[dY]QWAV[βAla]HF[Nle]-NH2)	1.2 ± 0.7	2200 ± 500	1.2 ± 0.4			
CCCC[C@H](NC(=O)[C@H](Cc1ccccc1)NC(=O)[C@H](Cc1c[nH]cn1)NC(=O)CCNC(=O)[C@@H](NC(=O)[C@H](C)NC(=O)[C@H](Cc1c[nH]c2ccccc12)NC(=O)[C@H](CCC(N)=O)NC(=O)[C@H](N)Cc1ccc(O)cc1)C(C)C)C(N)=O [dYB, [D-Tyr6-betaAla11-Phe13-Nle14] bombesin (6-14)] (H-[dY]QWAV[βAla]HF[Nle]-NH2)				nanomolar high affinity and high potency	approximately 1000 fold	approximately 1000 fold
